Source: PubChem BioAssay (NCI)
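Cells were grown in 96-well plates and exposed to each compound for 48 hours at five concentrations; endpoints were interpolated linearly between bracketing concentrations, or set to the highest concentration if not reached. TGI: concentration producing complete growth inhibition.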

What was measured:
Assay in all cases: NCI anticancer screen, dose series, 48 h
U251 CNS = tested on: U251 CNS
ACHN renal = tested on: ACHN renal
UO-31 renal = tested on: UO-31 renal
HCT-116 colon = tested on: HCT-116 colon
BT-549 breast = tested on: BT-549 breast
SN12C renal = tested on: SN12C renal
UACC-62 melanoma = tested on: UACC-62 melanoma
PC-3 prostate = tested on: PC-3 prostate
SNB-19 CNS = tested on: SNB-19 CNS
OVCAR-3 ovarian = tested on: OVCAR-3 ovarian

| SMILES | TGI (U251 CNS) | TGI (ACHN renal) | TGI (UO-31 renal) | TGI (HCT-116 colon) | TGI (BT-549 breast) | TGI (SN12C renal) | TGI (UACC-62 melanoma) | TGI (PC-3 prostate) | TGI (SNB-19 CNS) | TGI (OVCAR-3 ovarian) |
| --- | --- | --- | --- | --- | --- | --- | --- | --- | --- | --- |
| CCN1C[C@]2(C)CC[C@H](OC)C34C5C[C@@H]6[C@@H](OC)C[C@@](OC)(C5[C@H]6OCc5ccccc5)C(C13)[C@H](OC(C)=O)[C@@H]42 (stereo not given in full) | > 100 µM | > 100 µM | > 100 µM | > 100 µM | > 100 µM | > 100 µM | > 100 µM | > 100 µM | > 100 µM | > 100 µM |
| O=[N+]([O-])C(=C/c1cccc2ccccc12)/C(=C\c1cccc2ccccc12)[N+](=O)[O-] | 4.32 µM | 4.21 µM | 3.66 µM | 7.2 µM | 4.26 µM | 6.55 µM | 3.23 µM | > 24.3 µM | 11.5 µM | 15.5 µM |
| COc1ccc(-n2c(C)nc3ccc(NC4OC(CO)C(O)C(O)C4O)cc3c2=O)cc1 (stereo not given) | > 100 µM | > 100 µM | > 100 µM | > 100 µM | > 100 µM | > 100 µM | > 100 µM | > 100 µM | > 100 µM | > 100 µM |
| CC1CC(N2CCOCC2)=Nc2ccccc2N1Cc1ccccc1 (stereo not given) | > 100 µM | > 100 µM | > 100 µM | > 100 µM | > 100 µM | > 100 µM | > 100 µM | > 100 µM | > 100 µM | > 100 µM |
| CCOC(=O)/C=C\C(C#N)(C#N)N=Cc1ccsc1 | 33.1 µM | 9.26 µM | 5.71 µM | 4.72 µM | 12.1 µM | 36.3 µM | 32 µM | 22.7 µM | 55.2 µM | 6.42 µM |
| Cc1cccc(CNc2ncnc3[nH]ncc23)c1 | > 100 µM | > 100 µM | > 100 µM | > 100 µM | > 100 µM | > 100 µM | > 100 µM | > 100 µM | > 100 µM | > 100 µM |
| O=c1n(-c2ccccc2)c(=O)n2c(-c3ccccc3)c(-c3ccccc3)n12 | > 100 µM | > 100 µM | > 100 µM | > 100 µM | > 100 µM | > 100 µM | > 100 µM | > 100 µM | > 100 µM | > 100 µM |
| FC(F)(F)c1cccnc1Sc1nc2ccccc2s1 | > 100 µM | > 100 µM | > 100 µM | > 100 µM | > 100 µM | > 100 µM | > 100 µM | > 100 µM | > 100 µM | > 100 µM |
| CNC(=O)N1N[C@H](c2ccccc2)[C@@H]1c1ccccc1 | 43 µM | > 100 µM | 74.4 µM | 36.3 µM | 40.9 µM | 62.7 µM | 26.8 µM | 99.1 µM | > 100 µM | 36.7 µM |
| c1cncc(CSc2ncnc3nc[nH]c23)c1 | > 100 µM | > 100 µM | > 100 µM | > 100 µM | > 100 µM | > 100 µM | > 100 µM | > 100 µM | > 100 µM | > 100 µM |
| CCCCN(C)C(=O)C1=C(C)NC(C)=C(C(=O)N(C)CCCC)C1 | > 100 µM | > 100 µM | > 100 µM | > 100 µM | > 100 µM | > 100 µM | > 100 µM | > 100 µM | > 100 µM | > 100 µM |
| C=C[C@]1(O[Si](C)(C)C)C[C@@]2(C(=O)OCC)C(O)C(=O)N3CCc4cc(OC)c(OC)cc4[C@]312 (stereo not given in full) | > 100 µM | > 100 µM | > 100 µM | > 100 µM | > 100 µM | > 100 µM | > 100 µM | > 100 µM | > 100 µM | > 100 µM |
| BrCc1ccc(CBr)c2c1-c1c(CBr)ccc3ccc(CBr)c-2c13 | > 100 µM | > 100 µM | > 100 µM | > 100 µM | > 100 µM | > 100 µM | > 100 µM | > 100 µM | > 100 µM | > 100 µM |
| COc1ccc(NC(=O)C(=O)Cc2nc3ccc(C(=O)c4ccccc4)cc3[nH]c2=O)c([N+](=O)[O-])c1 | > 100 µM | > 100 µM | 67.6 µM | > 100 µM | > 100 µM | > 100 µM | 78.5 µM | > 100 µM | > 100 µM | > 100 µM |
| O=C1C=C(C2=C(C3=CC(=O)c4ccccc4C3=O)C(=O)c3ccccc3C2=O)C(=O)c2ccccc21 | 18.1 µM | 37.9 µM | 11.1 µM | 20.5 µM | 28.9 µM | 16.5 µM | 31.6 µM | 47.6 µM | 37.7 µM | 12.9 µM |
| O=c1cc(CNC2CC3CCC2C3)[nH]c(=O)[nH]1 (stereo not given) | > 100 µM | > 100 µM | > 100 µM | > 100 µM | > 100 µM | > 100 µM | > 100 µM | > 100 µM | > 100 µM | > 100 µM |
| CC(C)CCC[C@@H](C)[C@H]1CC[C@H]2C3=C[C@H](OS(=O)(=O)O)[C@@]4(O)C[C@@H](O)CC[C@]4(C)[C@@]3(O)CC[C@]12C | > 100 µM | > 100 µM | > 100 µM | > 100 µM | > 100 µM | > 100 µM | > 100 µM | > 100 µM | > 100 µM | > 100 µM |
| O=S(=O)(O)c1ccc2cc(N=Nc3c(O)ccc4ccccc34)ccc2c1 | > 100 µM | > 100 µM | > 100 µM | > 100 µM | > 100 µM | > 100 µM | > 100 µM | > 100 µM | > 100 µM | > 100 µM |
| O=C(/C=C(\Nc1ccccc1O)c1ccc(Br)cc1)C(Cl)(Cl)Cl | 15.4 µM | 14.9 µM | 10.8 µM | 22.4 µM | 28.5 µM | 20 µM | 26.3 µM | 11.9 µM | 20.3 µM | 18.5 µM |
| Cc1ccc(S(=O)(=O)N2CC(CCN)c3ccccc32)cc1 (stereo not given) | 18.4 µM | > 53.2 µM | 27.4 µM | 25.6 µM | 21.9 µM | 10.7 µM | 11.7 µM | 29 µM | 31.3 µM | 26.2 µM |
| CNC(=O)CCCNC(=O)CCCC(=O)OC | > 100 µM | > 100 µM | > 100 µM | > 100 µM | > 100 µM | > 100 µM | > 100 µM | > 100 µM | > 100 µM | > 100 µM |
| Nc1[nH]c(=O)[nH]c(=O)c1Cc1cccc(Cl)c1 | > 100 µM | > 100 µM | > 100 µM | > 100 µM | > 100 µM | > 100 µM | > 100 µM | > 100 µM | > 100 µM | > 100 µM |
| Cc1ccc(/N=N/C(=NNC(=O)c2ccc(C)cc2)c2ccc(N(C)C)cc2)cc1 | > 100 µM | 92.4 µM | 68 µM | 68.2 µM | 62.4 µM | 68.5 µM | 23.4 µM | > 100 µM | 58.7 µM | 54.2 µM |
| CC(=O)O[C@@H]1[C@H]2[C@@H](OC(=O)c3ccccc3)[C@@H](C)C[C@]2(O)[C@H](OC(C)=O)[C@@]2(C)[C@@H]3C[C@@](C)(OC(C)=O)C[C@@H](OC(C)=O)[C@@]3(OC(C)=O)C[C@@]12C | > 10 µM | > 10 µM | > 10 µM | > 10 µM | > 10 µM | > 10 µM | > 10 µM | > 10 µM | > 10 µM | > 10 µM |
| C=C1C2CCC3(CCC4C5(C)CCCC4(C=[N+](CCO)C5)C3C2)C1O (stereo not given) | > 100 µM | > 100 µM | > 100 µM | > 100 µM | > 100 µM | > 100 µM | > 100 µM | > 100 µM | > 100 µM | > 100 µM |
| O=C(O)Cc1cccc2c(=O)c3cccc([N+](=O)[O-])c3[nH]c12 | > 100 µM | > 100 µM | > 100 µM | > 100 µM | > 100 µM | > 100 µM | 76 µM | > 100 µM | > 100 µM | > 100 µM |
| COC1=C2CC(C)CC(OC)C(OC(=O)CCCN)C(C)/C=C(\C)C(OC(N)=O)C(OC)/C=C\C=C(/C)C(=O)NC(=CC1=O)C2=O (stereo not given) | 34.5 µM | 17.8 µM | 23.1 µM | 15.9 µM | 15.8 µM | 16.1 µM | 18.7 µM | 22.4 µM | 24.9 µM | 16.8 µM |
| c1ccc(COC2C3COC(O3)C(OCc3ccccc3)C2OCc2ccccc2)cc1 (stereo not given) | > 100 µM | > 100 µM | > 100 µM | > 100 µM | > 100 µM | 41.7 µM | > 100 µM | > 100 µM | > 100 µM | > 100 µM |
| Cc1nc(N(C(C)C)C(C)C)c(C(C)C)o1 | > 100 µM | > 100 µM | > 100 µM | > 100 µM | > 100 µM | > 100 µM | > 100 µM | > 100 µM | > 100 µM | > 100 µM |
| O=C(NCCCCCCCN1CCCCCCC1)C(C1CCCCC1)C1CCCCC1 | 20.8 µM | 24.4 µM | 21.3 µM | 21.5 µM | 28.7 µM | 26.9 µM | 10.1 µM | 21.1 µM | 27.9 µM | 18.6 µM |
